Source: patent US20250313533A1, “QUINOLINE CARBOXYLIC ACID ESTER COMPOUND AND PREPARATION METHOD AND USE THEREOF” (priority 2019, published 2025)

Assays:
[1] = test system: pathogenic bacteria causing bacterial wilt in tobacco; test: whole plant or invertebrate; type: cell-based, ralstonia; conditions: read-out: inhibitory rate
[2] = test system: pathogenic bacteria causing fire blight in pears; test: In vitro bactericidal activity, fire blight in pears; type: cell-based, erwinia; conditions: Erwinia, read-out: inhibitory rate; for inhibition at 1 ppm: dosage 1 ppm; for inhibition at 5 ppm: dosage 5 ppm
[3] = test system: soft rot in Chinese cabbages; test: whole plant or invertebrate; conditions: 48 h, read-out: efficacy against soft rot in Chinese cabbages
[4] = test system: black shank in potatoes; test: Living crops in vivo protective activity, potatoes (root irrigation); conditions: Solanum tuberosum, read-out: efficacy against black shank in potatoes; for pest or weed control at 5 ppm: dosage 5 ppm; for pest or weed control at 10 ppm: dosage 10 ppm
Experimental: Root irrigation was carried out on the potatoes for tests according to the designed concentration of the agents. The dosage for each plant was 200 mL and was kept consistent (also for the control). The black shank bacteria were inoculated on the second day after the application. The results were investigated according to the disease condition.

[5] = test system: pathogenic bacteria causing bacterial blight in rice; test: whole plant or invertebrate; type: cell-based, xanthomonas; conditions: read-out: inhibitory rate
[6] = test system: fruit blotch in watermelons; test: whole plant or invertebrate; conditions: read-out: efficacy against fruit blotch in watermelons
[7] = test system: bacterial wilt in tobacco; test: whole plant or invertebrate; conditions: Nicotiana tabacum, read-out: efficacy against bacterial wilt in tobacco
[8] = test system: stem rot in sweet potatoes; test: whole plant or invertebrate; conditions: read-out: efficacy against stem rot in sweet potatoes
[9] = test system: bacterial blight in rice; test: whole plant or invertebrate; conditions: Oryza sativa, read-out: efficacy against bacterial blight in rice
[10] = test system: pathogenic bacteria causing black shank in potatoes; test: In vitro bactericidal activity, black shank in potatoes; type: cell-based; conditions: read-out: inhibitory rate; for inhibition at 1 ppm: dosage 1 ppm; for inhibition at 5 ppm: dosage 5 ppm
[11] = test system: cucumber seedlings; test: Safety for plant growth after application; type: in vivo; conditions: dosage 200 ppm
Method in brief: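 Safety to the crop is assessed on cucumber seedlings in indoor pots by tracking how treatment alters leaf area, chlorophyll level and height growth rate.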

[12] = test system: pathogenic bacteria causing bacterial wilt in cassava; test: organism not typed; type: cell-based; conditions: read-out: inhibitory rate
[13] = test system: pathogenic bacteria causing stem rot in sweet potatoes; test: In vitro bactericidal activity, stem rot in sweet potatoes; type: cell-based, dikia; conditions: read-out: inhibitory rate; for inhibition at 1 ppm: dosage 1 ppm; for inhibition at 5 ppm: dosage 5 ppm
[14] = test system: pathogenic bacteria causing black rot in Chinese cabbages; test: In vitro bactericidal activity, black rot in Chinese cabbages; type: cell-based, xanthomonas; conditions: Xanthomonas, read-out: inhibitory rate; for inhibition at 1 ppm: dosage 1 ppm; for inhibition at 5 ppm: dosage 5 ppm
[15] = test system: pathogenic bacteria causing fruit blotch in watermelons; test: In vitro bactericidal activity, fruit blotch in watermelons; type: cell-based, acidovorax; conditions: read-out: inhibitory rate; for inhibition at 1 ppm: dosage 1 ppm; for inhibition at 5 ppm: dosage 5 ppm
[16] = test system: indoor potted cucumber seedlings; test: Effect of improving growth and development of crops; type: in vivo; design: Rate of growth rate increase (%): concentration or dose not given beside the values; conditions: versus blank control; for Rate of chlorophyll content increase (%) / Rate of leaf area increase (%): 14 days after application; for Rate of growth rate increase (%): plant height 14 days after application; for Rate of leaf area increase (%): second leaf
Experimental: Taking indoor potted cucumber seedlings as an example, the influence of the compound disclosed herein on growth rate of plant height, chlorophyll content, leaf area, etc. of crops was mainly evaluated.
The plant heights of plants before application and 14 days after the application were measured.
The growth rates were calculated according to formula (1)
The rates of the growth rate increase (%) were calculated according to formula (2)
The longitudinal and transverse diameters (i.e., leaf length and leaf width, respectively, wherein the leaf length is the distance from the base to the tip of a leaf, and leaf width is the measured value of the upper shoulder width of the leaf) of the second leaf of plants before application and 14 days after the application were measured.
The leaf areas were calculated according to formula (3)
The leaf area increases were calculated according to formula (4)
The rates of the leaf area increases were calculated according to formula (5)
The chlorophyll contents of leaves were measured by using a chlorophyll measuring instrument (model: SPAD-520 Plus).
The chlorophyll content increases were calculated according to formula (6)
The rates of the chlorophyll content increases were calculated according to formula (7)

[17] = test system: pathogenic bacteria causing bacterial angular leaf spot in cucumbers; test: In vitro bactericidal activity, bacterial angular leaf spot in cucumbers; type: cell-based, pseudomonas; conditions: read-out: inhibitory rate; for inhibition at 1 ppm: dosage 1 ppm; for inhibition at 5 ppm: dosage 5 ppm

CCOCCOC(=O)c1cn(C2CC2)c2cc(Cl)c(F)cc2c1=O [Compound 153]
≥ 90%: inhibition at 1 ppm [1] | inhibition at 5 ppm [1] | inhibition at 1 ppm [2] | inhibition at 5 ppm [2] | pest or weed control at 5 ppm [3] | pest or weed control at 10 ppm [3] | pest or weed control at 5 ppm [4] | pest or weed control at 10 ppm [4] | inhibition at 1 ppm [5] | inhibition at 5 ppm [5] | pest or weed control at 5 ppm [6] | pest or weed control at 10 ppm [6] | pest or weed control at 5 ppm [7] | pest or weed control at 10 ppm [7] | pest or weed control at 5 ppm [8] | pest or weed control at 10 ppm [8] | pest or weed control at 5 ppm [9] | pest or weed control at 10 ppm [9] | inhibition at 1 ppm [10] | inhibition at 5 ppm [10] | inhibition at 1 ppm [12] | inhibition at 5 ppm [12] | inhibition at 1 ppm [13] | inhibition at 5 ppm [13] | inhibition at 1 ppm [14] | inhibition at 5 ppm [14] | inhibition at 1 ppm [15] | inhibition at 5 ppm [15] | inhibition at 1 ppm [17] | inhibition at 5 ppm [17]
14%: Rate of chlorophyll content increase (%) [16]
15%: Rate of growth rate increase (%) [16]
safe for plant growth: safety for plant growth (discoloration, necrosis, wilt, malformation) [11]
13%: Rate of leaf area increase (%) [16]

O=C(OCCCO)c1cn(C2CC2)c2cc(Cl)c(F)cc2c1=O [Compound 164, 3-hydroxypropyl 7-chloro-1-cyclopropyl-6-fluoro-4-oxo-1,4-dihydroquinoline-3-carboxylate]
16%: Rate of leaf area increase (%) [16]
safe for plant growth: safety for plant growth (discoloration, necrosis, wilt, malformation) [11]
12%: Rate of growth rate increase (%) [16]
19%: Rate of chlorophyll content increase (%) [16]
≥ 90%: inhibition at 1 ppm [1] | inhibition at 5 ppm [1] | inhibition at 1 ppm [2] | inhibition at 5 ppm [2] | pest or weed control at 5 ppm [3] | pest or weed control at 10 ppm [3] | pest or weed control at 5 ppm [4] | pest or weed control at 10 ppm [4] | inhibition at 1 ppm [5] | inhibition at 5 ppm [5] | pest or weed control at 5 ppm [6] | pest or weed control at 10 ppm [6] | pest or weed control at 5 ppm [7] | pest or weed control at 10 ppm [7] | pest or weed control at 5 ppm [8] | pest or weed control at 10 ppm [8] | pest or weed control at 5 ppm [9] | pest or weed control at 10 ppm [9] | inhibition at 1 ppm [10] | inhibition at 5 ppm [10] | inhibition at 1 ppm [12] | inhibition at 5 ppm [12] | inhibition at 1 ppm [13] | inhibition at 5 ppm [13] | inhibition at 1 ppm [14] | inhibition at 5 ppm [14] | inhibition at 1 ppm [15] | inhibition at 5 ppm [15] | inhibition at 1 ppm [17] | inhibition at 5 ppm [17]

COCCCOC(=O)c1cn(C2CC2)c2cc(Cl)c(F)cc2c1=O [Compound 165, 3-methoxypropyl 7-chloro-1-cyclopropyl-6-fluoro-4-oxo-1,4-dihydroquinoline-3-carboxylate]
17%: Rate of leaf area increase (%) [16]
≥ 90%: inhibition at 1 ppm [1] | inhibition at 5 ppm [1] | inhibition at 1 ppm [2] | inhibition at 5 ppm [2] | pest or weed control at 5 ppm [3] | pest or weed control at 10 ppm [3] | pest or weed control at 5 ppm [4] | pest or weed control at 10 ppm [4] | inhibition at 1 ppm [5] | inhibition at 5 ppm [5] | pest or weed control at 5 ppm [6] | pest or weed control at 10 ppm [6] | pest or weed control at 5 ppm [7] | pest or weed control at 10 ppm [7] | pest or weed control at 5 ppm [8] | pest or weed control at 10 ppm [8] | pest or weed control at 5 ppm [9] | pest or weed control at 10 ppm [9] | inhibition at 1 ppm [10] | inhibition at 5 ppm [10] | inhibition at 1 ppm [12] | inhibition at 5 ppm [12] | inhibition at 1 ppm [13] | inhibition at 5 ppm [13] | inhibition at 1 ppm [14] | inhibition at 5 ppm [14] | inhibition at 1 ppm [15] | inhibition at 5 ppm [15] | inhibition at 1 ppm [17] | inhibition at 5 ppm [17]
12%: Rate of growth rate increase (%) [16]
safe for plant growth: safety for plant growth (discoloration, necrosis, wilt, malformation) [11]
16%: Rate of chlorophyll content increase (%) [16]

COCCCCOC(=O)c1cn(C2CC2)c2cc(Cl)c(F)cc2c1=O [Compound 178]
≥ 90%: inhibition at 1 ppm [1] | inhibition at 5 ppm [1] | inhibition at 1 ppm [2] | inhibition at 5 ppm [2] | pest or weed control at 5 ppm [3] | pest or weed control at 10 ppm [3] | pest or weed control at 10 ppm [4] | inhibition at 1 ppm [5] | inhibition at 5 ppm [5] | pest or weed control at 5 ppm [6] | pest or weed control at 10 ppm [6] | pest or weed control at 5 ppm [7] | pest or weed control at 10 ppm [7] | pest or weed control at 5 ppm [8] | pest or weed control at 10 ppm [8] | pest or weed control at 5 ppm [9] | pest or weed control at 10 ppm [9] | inhibition at 5 ppm [10] | inhibition at 1 ppm [12] | inhibition at 5 ppm [12] | inhibition at 1 ppm [13] | inhibition at 5 ppm [13] | inhibition at 1 ppm [14] | inhibition at 5 ppm [14] | inhibition at 1 ppm [15] | inhibition at 5 ppm [15] | inhibition at 1 ppm [17] | inhibition at 5 ppm [17]
15%: Rate of chlorophyll content increase (%) [16]
9%: Rate of growth rate increase (%) [16] | Rate of leaf area increase (%) [16]
safe for plant growth: safety for plant growth (discoloration, necrosis, wilt, malformation) [11]
≥ 80%: pest or weed control at 5 ppm [4] | inhibition at 1 ppm [10]
